# Results: PubChem BioAssay AID200 (DTP/NCI, 2004)
# Where “and” joins values, the source holds several entries; their conditions need not be identical. Equal entries are not always repeated. Toxic doses and inconclusive results are not listed.
# Test system: B6C3F1 mice, B16 melanoma ip, median survival T/C
# Assay: NCI In Vivo Anticancer Drug Screen. Data for tumor model B16 Melanoma (intraperitoneal) in B6C3F1 mice
# Conditions: endpoint: median survival time, higher = longer survival
# Procedure, shortened: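 Readout: survival or tumor size in treated mice relative to vehicle controls (T/C). Model uses transplantable tumors grown in mice.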
# [1] = dose: 12.5 mg/kg/injection, schedule: Q01DX009 (ip), vehicle: saline with Tween-80
# [2] = dose: 25.0 mg/kg/injection, schedule: Q01DX009 (ip), vehicle: saline with Tween-80
# [3] = dose: 50.0 mg/kg/injection, schedule: Q01DX009 (ip), vehicle: saline with Tween-80
# [4] = dose: 100.0 mg/kg/injection, schedule: Q01DX009 (ip), vehicle: saline with Tween-80
# [5] = dose: 200.0 mg/kg/injection, schedule: Q01DX009 (ip), vehicle: saline with Tween-80
# [6] = dose: 400.0 mg/kg/injection, schedule: Q01DX009 (ip), vehicle: saline with Tween-80
# [7] = dose: 12.5 mg/kg/injection, schedule: Q01DX009 (ip), vehicle: Klucel (hydroxypropylcellulose) (HPC)
# [8] = dose: 25.0 mg/kg/injection, schedule: Q01DX009 (ip), vehicle: Klucel (hydroxypropylcellulose) (HPC)
# [9] = dose: 50.0 mg/kg/injection, schedule: Q01DX009 (ip), vehicle: Klucel (hydroxypropylcellulose) (HPC)
# [10] = dose: 100.0 mg/kg/injection, schedule: Q01DX009 (ip), vehicle: saline
smiles,measurement,setting,value
CN=S(=O)(OCCCCCOS(=O)(=NC)c1ccc(C)cc1)c1ccc(C)cc1 (centres undefined),T/C,[1],94 % of control
same,T/C,[2],104 % of control
same,T/C,[3],113 % of control
same,T/C,[4],123 % of control
C=C(C)/C([O-])=N/[N+](C)(C)CC(O)CCCCCCCCCCCC (centres undefined),T/C,"dose: 25.0 mg/kg/injection, schedule: Q01DX001 (ip), vehicle: saline",109 % of control
same,T/C,"dose: 50.0 mg/kg/injection, schedule: Q01DX001 (ip), vehicle: saline",114 % of control and 116 % of control
same,T/C,"dose: 100.0 mg/kg/injection, schedule: Q01DX001 (ip), vehicle: saline",114 % of control and 90 % of control
same,T/C,"dose: 200.0 mg/kg/injection, schedule: Q01DX001 (ip), vehicle: saline",86 % of control
CC(C(C(=O)N1CCCCC1)N1CCCCC1)N1CCCCC1 (centres undefined),T/C,[4],94 % of control
same,T/C,[5],95 % of control
same,T/C,[6],103 % of control
CN(C)CCC(O)c1c[nH]c2ccccc12 (centres undefined),T/C,[4],98 % of control
same,T/C,[5],94 % of control
same,T/C,[6],94 % of control
O=C1C(O)=C(c2ccccc2)C(=O)C(O)=C1c1ccccc1,T/C,"dose: 3.12 mg/kg/injection, schedule: Q01DX009 (ip), vehicle: saline",109 % of control
same,T/C,"dose: 6.25 mg/kg/injection, schedule: Q01DX009 (ip), vehicle: saline",100 % of control
same,T/C,"dose: 12.5 mg/kg/injection, schedule: Q01DX009 (ip), vehicle: saline",91 % of control and 101 % of control
same,T/C,"dose: 25.0 mg/kg/injection, schedule: Q01DX009 (ip), vehicle: saline",109 % of control and 117 % of control
same,T/C,"dose: 50.0 mg/kg/injection, schedule: Q01DX009 (ip), vehicle: saline",108 % of control and 112 % of control
COC1CC(C)C(OC)c2cc(O)cc(c2O)NC(=O)/C(C)=C/C=C\C(C)C(OC(N)=O)/C(C)=C\C(C)C1OC (centres undefined),T/C,"dose: 0.31 mg/kg/injection, schedule: Q01DX005 (iv), vehicle: other",94 % of control
same,T/C,"dose: 0.31 mg/kg/injection, schedule: Q01DX009 (ip), vehicle: other",109 % of control
same,T/C,"dose: 0.31 mg/kg/injection, schedule: Q01DX009 (ip), vehicle: saline with Tween-80",98 % of control
same,T/C,"dose: 0.62 mg/kg/injection, schedule: Q01DX005 (iv), vehicle: other",101 % of control
same,T/C,"dose: 0.62 mg/kg/injection, schedule: Q01DX009 (ip), vehicle: saline with Tween-80",112 % of control
same,T/C,"dose: 1.25 mg/kg/injection, schedule: Q01DX005 (iv), vehicle: other",93 % of control
same,T/C,"dose: 1.25 mg/kg/injection, schedule: Q01DX009 (ip), vehicle: other",117 % of control
same,T/C,"dose: 2.5 mg/kg/injection, schedule: Q01DX005 (iv), vehicle: other",102 % of control
same,T/C,"dose: 2.5 mg/kg/injection, schedule: Q01DX009 (ip), vehicle: other",119 % of control
same,T/C,"dose: 5.0 mg/kg/injection, schedule: Q01DX005 (iv), vehicle: other",95 % of control
same,T/C,"dose: 5.0 mg/kg/injection, schedule: Q01DX009 (ip), vehicle: saline with Tween-80",171 % of control
same,T/C,"dose: 10.0 mg/kg/injection, schedule: Q01DX005 (iv), vehicle: other",109 % of control
same,T/C,"dose: 10.0 mg/kg/injection, schedule: Q01DX009 (ip), vehicle: other",114 % of control
CN(C)N=Nc1cccc2c1N(C)c1ccc(Cl)cc1S2,T/C,"dose: 6.25 mg/kg/injection, schedule: Q01DX009 (ip), vehicle: other",109 % of control
same,T/C,"dose: 12.5 mg/kg/injection, schedule: Q01DX009 (ip), vehicle: other",108 % of control
same,T/C,"dose: 25.0 mg/kg/injection, schedule: Q01DX009 (ip), vehicle: other",103 % of control
same,T/C,"dose: 50.0 mg/kg/injection, schedule: Q01DX009 (ip), vehicle: other",104 % of control
same,T/C,"dose: 100.0 mg/kg/injection, schedule: Q01DX009 (ip), vehicle: other",89 % of control
CC(C)CC(NC(=O)OCc1ccccc1)C(=O)O (centres undefined),T/C,[1],108 % of control
same,T/C,[2],102 % of control
same,T/C,[3],102 % of control and 106 % of control
same,T/C,[4],112 % of control and 101 % of control
same,T/C,[5],105 % of control
COC1=C(NC(C)=O)C(=O)c2nc(-c3nc(C(=O)O)c(C)c(-c4ccc(OC)c(OC)c4O)c3N)ccc2C1=O,T/C,"dose: 6.25 mg/kg/injection, schedule: Q01DX009 (ip), vehicle: Klucel (hydroxypropylcellulose) (HPC)",103 % of control
same,T/C,[7],95 % of control
same,T/C,[8],86 % of control
same,T/C,[9],97 % of control
NC(N)=NC(N)=Nc1ccc(-c2ccc(N=C(N)N=C(N)N)cc2)cc1,T/C,"dose: 0.78 mg/kg/injection, schedule: Q01DX009 (ip), vehicle: saline with Tween-80",98 % of control
same,T/C,"dose: 1.56 mg/kg/injection, schedule: Q01DX009 (ip), vehicle: saline with Tween-80",107 % of control
same,T/C,"dose: 3.13 mg/kg/injection, schedule: Q01DX009 (ip), vehicle: saline with Tween-80",90 % of control
same,T/C,"dose: 6.25 mg/kg/injection, schedule: Q01DX009 (ip), vehicle: saline with Tween-80",106 % of control
same,T/C,[1],93 % of control
CCOc1ccc2c(c1)/C(=C\C=C\C1CC(C)C3CC(OCC)CCC3N1CC)CC(C)N2CC (centres undefined),T/C,"dose: 1.25 mg/kg/injection, schedule: Q01DX009 (ip), vehicle: saline + alcohol",97 % of control
same,T/C,"dose: 2.5 mg/kg/injection, schedule: Q01DX009 (ip), vehicle: saline + alcohol",100 % of control
same,T/C,"dose: 5.0 mg/kg/injection, schedule: Q01DX009 (ip), vehicle: saline + alcohol",113 % of control
CS(=O)(=O)OCCN(CCOS(C)(=O)=O)c1ccc(C=Nc2ccc(-c3csc(COc4ccccc4)n3)cc2)cc1,T/C,[7],114 % of control
same,T/C,[9],162 % of control
CN(C)/N=N/c1nc[nH]c1C(N)=O,T/C,"dose: 25.0 mg/kg/injection, schedule: Q01DX009 (ip), vehicle: distilled water + Tween-80",104 % of control
same,T/C,[2],100 % of control
same,T/C,[3],119 % of control
same,T/C,"dose: 60.0 mg/kg/injection, schedule: Q04DX003 (ip), vehicle: carboxymethylcellulose (CMC)",109 % of control
same,T/C,"dose: 60.0 mg/kg/injection, schedule: Q04DX003 (ip), vehicle: saline",120 % of control
same,T/C,"dose: 80.0 mg/kg/injection, schedule: Q04DX003 (ip), vehicle: saline",102 % of control
same,T/C,"dose: 100.0 mg/kg/injection, schedule: Q01DX009 (ip), vehicle: distilled water + Tween-80",109 % of control
same,T/C,"dose: 120.0 mg/kg/injection, schedule: Q04DX003 (ip), vehicle: carboxymethylcellulose (CMC)",113 % of control
same,T/C,"dose: 180.0 mg/kg/injection, schedule: Q04DX003 (ip), vehicle: carboxymethylcellulose (CMC)",118 % of control
same,T/C,"dose: 180.0 mg/kg/injection, schedule: Q04DX003 (ip), vehicle: saline",120 % of control
same,T/C,[5],93 % of control
[Cl][Pt+2][Cl].[NH-]c1cc(Cl)c(Cl)c(Cl)c1[NH-],T/C,"dose: 40.0 mg/kg/injection, schedule: Q01DX009 (ip), vehicle: distilled water + Tween-80",109 % of control
same,T/C,"dose: 80.0 mg/kg/injection, schedule: Q01DX009 (ip), vehicle: distilled water + Tween-80",102 % of control
COc1ccc(C[C@H](N)C(=O)NC2C(CO)OC(n3cnc4c(N(C)C)ncnc43)C2O)cc1 (some centres undefined),T/C,"dose: 5.0 mg/kg/injection, schedule: Q01DX009 (ip), vehicle: saline",103 % of control and 105 % of control
same,T/C,"dose: 10.0 mg/kg/injection, schedule: Q01DX009 (ip), vehicle: saline",114 % of control and 106 % of control
same,T/C,"dose: 20.0 mg/kg/injection, schedule: Q01DX009 (ip), vehicle: saline",112 % of control and 116 % of control
same,T/C,"dose: 40.0 mg/kg/injection, schedule: Q01DX009 (ip), vehicle: saline",118 % of control and 122 % of control
NC(CCCNc1cccc(O)c1)C(=O)O (centres undefined),T/C,"dose: 75.0 mg/kg/injection, schedule: Q01DX009 (ip), vehicle: saline",104 % of control
same,T/C,[10],87 % of control
C[Si](C)(CCl)N[Si](C)(C)CCl,T/C,[1],100 % of control
same,T/C,[2],104 % of control
same,T/C,[3],99 % of control
same,T/C,[4],96 % of control
CNC(=S)N/N=C(/C)CCc1c(C)nn(C(=S)NC)c1C,T/C,[7],103 % of control
same,T/C,[8],106 % of control
same,T/C,[9],102 % of control
[Cl][Pt+2][Cl].[NH-]c1cc2ccccc2cc1[NH-],T/C,"dose: 20.0 mg/kg/injection, schedule: Q01DX009 (ip), vehicle: saline with Tween-80",89 % of control
same,T/C,"dose: 40.0 mg/kg/injection, schedule: Q01DX009 (ip), vehicle: saline with Tween-80",104 % of control
same,T/C,"dose: 80.0 mg/kg/injection, schedule: Q01DX009 (ip), vehicle: saline with Tween-80",98 % of control
same,T/C,"dose: 160.0 mg/kg/injection, schedule: Q01DX009 (ip), vehicle: saline with Tween-80",99 % of control
same,T/C,"dose: 320.0 mg/kg/injection, schedule: Q01DX009 (ip), vehicle: saline with Tween-80",111 % of control
NC(Cc1ccc(O)c(Cl)c1)C(=O)O (centres undefined),T/C,[10],93 % of control
same,T/C,"dose: 200.0 mg/kg/injection, schedule: Q01DX009 (ip), vehicle: saline",98 % of control
